Data from EP4467141A1, “PYRAZOLO-QUINOLINES AS SELECTIVE INHIBITORS OF GENOTOXIC STRESS-INDUCED IKK/NF- KB PATHWAYS FOR CANCER THERAPY” (Max-Delbrück-Centrum für Molekulare Medizin in der …, priority 2023, dated 2024).
Like-named read-outs stand apart in the source and are kept apart here.

Experiments:
Experiment in all cases: Kinase panel study
Format in all cases: biochemical
GSG2 (Haspin) = target: T1, GSG2 (Haspin) (Homo sapiens, UniProt Q8TF76); conditions: for inhibition at 1 µM: 1000nM
T1 construct: purchased Thermo Fisher Scientific
T1 sequence (Q8TF76 1-798): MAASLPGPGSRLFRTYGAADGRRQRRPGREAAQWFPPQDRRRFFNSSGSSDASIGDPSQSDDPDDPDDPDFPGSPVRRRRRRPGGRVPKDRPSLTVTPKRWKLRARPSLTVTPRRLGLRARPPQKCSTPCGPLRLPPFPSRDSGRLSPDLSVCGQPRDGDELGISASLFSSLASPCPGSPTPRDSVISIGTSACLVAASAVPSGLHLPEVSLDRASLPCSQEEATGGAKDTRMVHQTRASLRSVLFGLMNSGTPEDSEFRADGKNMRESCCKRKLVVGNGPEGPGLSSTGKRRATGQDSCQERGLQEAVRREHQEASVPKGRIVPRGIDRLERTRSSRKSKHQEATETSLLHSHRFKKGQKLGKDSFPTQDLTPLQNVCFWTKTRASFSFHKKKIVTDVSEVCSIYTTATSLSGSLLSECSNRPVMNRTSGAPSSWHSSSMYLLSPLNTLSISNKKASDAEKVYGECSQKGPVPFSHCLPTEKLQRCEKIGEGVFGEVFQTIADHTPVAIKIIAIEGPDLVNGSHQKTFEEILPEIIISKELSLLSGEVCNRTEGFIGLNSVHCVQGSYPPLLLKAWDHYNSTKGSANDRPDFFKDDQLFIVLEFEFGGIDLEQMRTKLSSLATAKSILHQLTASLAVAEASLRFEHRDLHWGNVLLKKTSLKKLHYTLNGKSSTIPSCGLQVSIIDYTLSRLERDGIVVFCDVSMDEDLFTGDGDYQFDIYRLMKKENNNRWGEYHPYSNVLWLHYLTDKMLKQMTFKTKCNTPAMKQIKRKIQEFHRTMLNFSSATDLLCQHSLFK
Description: (§1) The Kinase panel study was entirely provided by Thermo Fisher Scientific using the two lead compounds MW01 and MW05 as well as their derivatives (MW01-E06, MW01-E10, MW01-E14, MW01-E18, MW05-E2, MW05-E3, MW05-E9 and MW05-E10. The experiment was performed using the ZLyte or Adapta protocol according to manufacturer standard operating procedures.
(§2) Based on their similar effects in our screen and molecular analysis, MW01 and MW05 were used in comparative target deconvolution studies seeking common targets despite their distinct structures. To eliminate previously identified kinases regulating NF-κB activity, such as IKK, as possible targets of MW01 and MW05, an in vitro kinase inhibition assay was performed. […] We next investigated if any of the shared kinase targets of MW01 and MW05 play a role in genotoxic stress-induced NF-κB activity and established several criteria to narrow down pathway-relevant targets. Considering the similar NF-κB inhibition phenotypes of both compounds, we hypothesized first that the target should be shared by both lead compounds. Second, based on the CaCo2 recovery values and experimental treatment concentration of 10 µM), the putative target kinase should have a low IC50 of, at most, 2000 nM for both lead compounds in the in vitro kinase panel (Fig. 2A). Based on these criteria alone, we arrived at a relatively short list of potential targets for further analysis, leaving only PIK3CG, PIK3C2G, and CLK2 (Fig. 2B). IC50 values for PIK3C2G by both lead compounds agreed best with these criteria, but RNA expression analysis indicates high tissue specificity as well as lack of expression of this kinase in our U2-OS model cell line, which we then eliminated from further analysis (Uhlén et al., 2015). […] Table 6: Percentage of inhibition of the indicated kinases by MW01 or MW05 at either 10 µM or 1 µM. n.d. = not determined.

BLK = target: T2, BLK (Homo sapiens, UniProt P51451); conditions: for inhibition at 1 µM: 1000nM
T2 construct: purchased Thermo Fisher Scientific
T2 sequence (P51451 whole entry): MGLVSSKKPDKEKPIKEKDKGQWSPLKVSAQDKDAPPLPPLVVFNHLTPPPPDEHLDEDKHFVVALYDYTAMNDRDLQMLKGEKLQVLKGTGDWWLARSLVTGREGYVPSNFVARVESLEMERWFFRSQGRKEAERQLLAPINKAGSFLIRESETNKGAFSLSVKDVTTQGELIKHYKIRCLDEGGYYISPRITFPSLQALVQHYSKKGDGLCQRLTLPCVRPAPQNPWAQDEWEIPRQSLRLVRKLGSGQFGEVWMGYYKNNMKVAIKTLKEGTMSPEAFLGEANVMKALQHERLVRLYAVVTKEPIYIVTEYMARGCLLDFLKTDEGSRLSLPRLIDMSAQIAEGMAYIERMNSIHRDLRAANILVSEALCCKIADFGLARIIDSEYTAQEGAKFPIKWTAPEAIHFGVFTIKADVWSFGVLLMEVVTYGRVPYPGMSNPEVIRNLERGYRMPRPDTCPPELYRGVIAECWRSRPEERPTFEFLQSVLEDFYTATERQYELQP
Description: as §1, §2

CSF1R (FMS) = target: T3, CSF1R (FMS) (Homo sapiens, UniProt P07333); conditions: for inhibition at 1 µM: 1000nM
T3 construct: purchased Thermo Fisher Scientific
T3 sequence (P07333 20-972): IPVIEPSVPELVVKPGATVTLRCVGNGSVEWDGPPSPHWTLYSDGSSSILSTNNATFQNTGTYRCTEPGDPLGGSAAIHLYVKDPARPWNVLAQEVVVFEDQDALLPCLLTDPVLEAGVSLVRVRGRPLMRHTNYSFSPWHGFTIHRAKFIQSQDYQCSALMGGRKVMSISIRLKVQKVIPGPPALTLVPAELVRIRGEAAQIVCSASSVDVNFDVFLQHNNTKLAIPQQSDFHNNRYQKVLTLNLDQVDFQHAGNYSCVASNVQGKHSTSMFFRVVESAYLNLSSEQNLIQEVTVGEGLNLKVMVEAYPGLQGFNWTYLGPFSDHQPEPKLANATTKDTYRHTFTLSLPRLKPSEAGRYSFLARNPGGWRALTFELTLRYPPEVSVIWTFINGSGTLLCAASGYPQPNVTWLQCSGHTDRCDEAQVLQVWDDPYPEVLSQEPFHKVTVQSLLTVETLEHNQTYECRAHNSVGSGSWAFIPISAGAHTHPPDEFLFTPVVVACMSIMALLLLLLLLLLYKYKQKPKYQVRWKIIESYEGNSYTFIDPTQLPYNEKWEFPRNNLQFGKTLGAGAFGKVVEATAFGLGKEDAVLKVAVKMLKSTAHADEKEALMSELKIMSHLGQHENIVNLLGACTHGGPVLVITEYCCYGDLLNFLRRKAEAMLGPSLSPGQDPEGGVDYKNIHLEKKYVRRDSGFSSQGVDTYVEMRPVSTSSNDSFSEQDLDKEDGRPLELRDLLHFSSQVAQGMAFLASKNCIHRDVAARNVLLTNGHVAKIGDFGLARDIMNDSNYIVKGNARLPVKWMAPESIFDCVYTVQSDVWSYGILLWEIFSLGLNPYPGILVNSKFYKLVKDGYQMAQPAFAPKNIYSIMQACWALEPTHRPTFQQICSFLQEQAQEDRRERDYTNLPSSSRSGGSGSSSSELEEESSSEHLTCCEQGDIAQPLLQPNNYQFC
Description: as §1, §2

PIP5K1C = target: T4, PIP5K1C (Homo sapiens, UniProt O60331); conditions: for inhibition at 1 µM: 1000nM
T4 construct: purchased Thermo Fisher Scientific
T4 sequence (O60331 whole entry): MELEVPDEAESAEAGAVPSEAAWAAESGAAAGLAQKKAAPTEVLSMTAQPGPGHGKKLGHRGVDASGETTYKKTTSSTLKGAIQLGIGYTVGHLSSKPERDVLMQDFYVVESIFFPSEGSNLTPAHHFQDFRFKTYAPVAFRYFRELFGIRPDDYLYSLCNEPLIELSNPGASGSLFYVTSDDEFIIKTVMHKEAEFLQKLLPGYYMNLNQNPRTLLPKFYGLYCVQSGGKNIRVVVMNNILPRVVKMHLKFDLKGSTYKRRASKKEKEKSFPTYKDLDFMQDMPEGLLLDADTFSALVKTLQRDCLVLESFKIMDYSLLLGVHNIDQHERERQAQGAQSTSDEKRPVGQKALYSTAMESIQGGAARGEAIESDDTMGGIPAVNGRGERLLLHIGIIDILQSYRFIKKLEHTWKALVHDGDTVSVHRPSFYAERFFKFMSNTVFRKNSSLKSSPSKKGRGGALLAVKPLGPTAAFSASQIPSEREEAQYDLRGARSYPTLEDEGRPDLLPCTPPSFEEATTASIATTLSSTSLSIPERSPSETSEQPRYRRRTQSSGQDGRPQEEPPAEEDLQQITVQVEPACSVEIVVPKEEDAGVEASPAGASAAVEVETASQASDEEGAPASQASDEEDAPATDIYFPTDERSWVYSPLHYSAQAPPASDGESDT
Description: as §1, §2

CLK3 = target: T5, CLK3 (Homo sapiens, UniProt P49761); conditions: for CLK3 inhibition: in vitro kinase assay, isoform specificity; for inhibition at 10 µM: CLK3, compound at 10µM
T5 construct: purchased Thermo Fisher Scientific
T5 sequence (P49761 whole entry, canonical isoform): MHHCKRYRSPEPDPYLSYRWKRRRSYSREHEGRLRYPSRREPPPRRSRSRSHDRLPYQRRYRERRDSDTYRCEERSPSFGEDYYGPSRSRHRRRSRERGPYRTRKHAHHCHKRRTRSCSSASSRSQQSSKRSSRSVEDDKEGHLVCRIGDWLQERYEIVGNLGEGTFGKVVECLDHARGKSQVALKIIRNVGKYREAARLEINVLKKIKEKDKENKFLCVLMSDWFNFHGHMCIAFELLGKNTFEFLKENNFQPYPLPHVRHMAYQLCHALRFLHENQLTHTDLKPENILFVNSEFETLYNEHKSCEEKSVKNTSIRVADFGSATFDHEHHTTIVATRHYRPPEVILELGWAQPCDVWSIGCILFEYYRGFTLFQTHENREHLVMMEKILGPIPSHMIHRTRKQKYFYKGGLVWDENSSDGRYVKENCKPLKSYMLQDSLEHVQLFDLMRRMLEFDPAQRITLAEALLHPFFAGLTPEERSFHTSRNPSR
Description: as §1, with “procedures. […]” for “procedures.”

[1] = read-out: Percentage of inhibition
[2] = 10000nM, read-out: Percentage of inhibition
[3] = GSG2 (Haspin), compound at 10µM, read-out: % of Inhibition
[4] = BLK, compound at 10µM, read-out: % of Inhibition
[5] = CSF1R (FMS), compound at 10µM, read-out: % of Inhibition
[6] = PIP5K1C, compound at 10µM, read-out: % of Inhibition

Row | SMILES | inhibition at 1 µM (GSG2 (Haspin); [1]) [%] | inhibition at 10 µM (GSG2 (Haspin); [2]) [%] | inhibition at 1 µM (BLK; [1]) [%] | inhibition at 10 µM (BLK; [2]) [%] | inhibition at 1 µM (CSF1R (FMS); [1]) [%] | inhibition at 10 µM (CSF1R (FMS); [2]) [%] | inhibition at 1 µM (PIP5K1C; [1]) [%] | inhibition at 10 µM (PIP5K1C; [2]) [%] | CLK3 inhibition (CLK3) | inhibition at 10 µM (GSG2 (Haspin); [3]) [%] | inhibition at 10 µM (BLK; [4]) [%] | inhibition at 10 µM (CSF1R (FMS); [5]) [%] | inhibition at 10 µM (PIP5K1C; [6]) [%] | inhibition at 10 µM (CLK3) [%]
1 | COc1ccc2c(c1OC)c(=O)n1c3ccc(O)cc3c3ccnc2c31 [MW01, 5-Hydroxy-10,11-dimethoxy-9H-benzo[c]indolo[3,2,1-ij][1,5]naphthyridin-9-one] | 77 | 83 | 8 | 26 | 36 | 51 | 54 | 69 | largely spare CLK3 | – | – | – | – | –
2 | COc1ccc2c(c1)c1ccnc3c4nc(OC)ccc4c(=O)n2c13 [MW01-E6, 5,15-dimethoxy-1,11,14-triazapentacyclo[10.7.1,0^2,7.0^8,^20.0^13,^18]icosa-2(7),3,5,8(20),9,11,13(18),14,16-nonaen-19-one] | – | – | – | – | – | – | – | – | – | 29 | 23 | 33 | 14 | 9
3 | O=c1c2cc(O)ccc2c2nccc3c4cc(O)ccc4n1c32 [MW01-E10, 5,16-dihydroxy-1,11-diazapentacyclo[10.7.1.0^2,^7.0^8,^20.0^13,^18]icosa-2(7),3,5,8(20),9,11,13(18),14,16-nonaen-19-one] | – | – | – | – | – | – | – | – | – | 80 | 42 | 61 | 33 | 35
4 | COc1ccc2c(c1)c1ccnc3c4ccnc(OC)c4c(=O)n2c13 [MW01-E14, 5,17-dimethoxy-1,11,16-triazapentacyclo[10.7.1.0^2,^7.0^8,^20.0^13,^18]icosa-2(7),3,5,8(20),9,11,13(18),14,16-nonaen-19-one] | – | – | – | – | – | – | – | – | – | 24 | 9 | 18 | 8 | 7
5 | O=c1c2cnccc2c2nccc3c4cc(O)ccc4n1c32 [MW01-E18, 5-hydroxy-1,11,16-triazapentacyclo[10.7.1.0^2,^7.0^8,^20.0^13,^18]icosa-2(7),3,5,8(20),9,11,13(18),14,16-nonaen-19-one] | – | – | – | – | – | – | – | – | – | 88 | 23 | 57 | 27 | 35
6 | COc1ccc2cc3c(N)nn(C(=O)c4cccc(N(C)C)c4)c3nc2c1 [MW05, (3-Amino-7-methoxypyrazolo[3,4-b]quinolin-1-yl)-[3-(dimethylamino)phenyl]methanone] | 4 | 20 | 0 | -1 | 5 | -6 | -1 | 26 | largely spare CLK3 | – | – | – | – | –
7 | COc1ccc2nc3c(cc2c1)c(N)nn3C(=O)c1cccc(N(C)C)c1 [MW05-E2, 1-[3-(dimethylamino)benzoyl]-6-methoxy-1H-pyrazolo[3,4-b]quinolin-3-amine] | – | – | – | – | – | – | – | – | – | 36 | 10 | 20 | -2 | 5
